The values below come from US10196357B2, “Biaryl compositions and methods for modulating a kinase cascade” (Athenex, Inc., priority 2007, dated 2019).

For one test, the target named is FGFR2(h) (Homo sapiens, UniProt P21802). The experiment in a line: isolated kinase activity, FGFR2. The class given is biochemical. The settings on record: compound @ 10 μM. The text has this:
(§1) Table 8 illustrates percent activity of isolated kinases in the presence of the AstraZeneca ATP-competitive inhibitor (KX2-328, AZ-28) or KX2-391 relative to control (untreated) isolated kinases.

In another test the target is Fyn(h) (Homo sapiens, UniProt P06241). As to the kind of experiment: isolated kinase activity, Fyn. The class given is biochemical. The settings on record: compound @ 10 μM.
Sequence of Fyn(h) (P06241 whole entry): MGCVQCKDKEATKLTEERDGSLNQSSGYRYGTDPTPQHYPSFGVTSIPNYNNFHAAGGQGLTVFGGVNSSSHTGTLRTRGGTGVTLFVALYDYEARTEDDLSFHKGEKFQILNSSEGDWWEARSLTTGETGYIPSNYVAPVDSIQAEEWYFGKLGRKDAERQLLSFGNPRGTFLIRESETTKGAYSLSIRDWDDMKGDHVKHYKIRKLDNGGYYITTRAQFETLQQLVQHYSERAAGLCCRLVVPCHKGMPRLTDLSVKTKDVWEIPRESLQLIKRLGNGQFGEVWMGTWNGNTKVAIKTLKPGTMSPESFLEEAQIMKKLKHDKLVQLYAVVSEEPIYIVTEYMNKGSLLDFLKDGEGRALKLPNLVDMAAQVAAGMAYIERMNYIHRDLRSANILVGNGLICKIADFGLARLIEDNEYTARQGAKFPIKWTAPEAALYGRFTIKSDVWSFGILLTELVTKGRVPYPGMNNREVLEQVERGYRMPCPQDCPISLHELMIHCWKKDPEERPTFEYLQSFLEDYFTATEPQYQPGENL
Text: as §1

In another test the target is IGF-1R(h) (Homo sapiens, UniProt P08069). As to the kind of experiment: isolated kinase activity, IGF-1R. The test is classed as biochemical. The settings on record: compound @ 10 μM.
Sequence of IGF-1R(h) (P08069 31-1367): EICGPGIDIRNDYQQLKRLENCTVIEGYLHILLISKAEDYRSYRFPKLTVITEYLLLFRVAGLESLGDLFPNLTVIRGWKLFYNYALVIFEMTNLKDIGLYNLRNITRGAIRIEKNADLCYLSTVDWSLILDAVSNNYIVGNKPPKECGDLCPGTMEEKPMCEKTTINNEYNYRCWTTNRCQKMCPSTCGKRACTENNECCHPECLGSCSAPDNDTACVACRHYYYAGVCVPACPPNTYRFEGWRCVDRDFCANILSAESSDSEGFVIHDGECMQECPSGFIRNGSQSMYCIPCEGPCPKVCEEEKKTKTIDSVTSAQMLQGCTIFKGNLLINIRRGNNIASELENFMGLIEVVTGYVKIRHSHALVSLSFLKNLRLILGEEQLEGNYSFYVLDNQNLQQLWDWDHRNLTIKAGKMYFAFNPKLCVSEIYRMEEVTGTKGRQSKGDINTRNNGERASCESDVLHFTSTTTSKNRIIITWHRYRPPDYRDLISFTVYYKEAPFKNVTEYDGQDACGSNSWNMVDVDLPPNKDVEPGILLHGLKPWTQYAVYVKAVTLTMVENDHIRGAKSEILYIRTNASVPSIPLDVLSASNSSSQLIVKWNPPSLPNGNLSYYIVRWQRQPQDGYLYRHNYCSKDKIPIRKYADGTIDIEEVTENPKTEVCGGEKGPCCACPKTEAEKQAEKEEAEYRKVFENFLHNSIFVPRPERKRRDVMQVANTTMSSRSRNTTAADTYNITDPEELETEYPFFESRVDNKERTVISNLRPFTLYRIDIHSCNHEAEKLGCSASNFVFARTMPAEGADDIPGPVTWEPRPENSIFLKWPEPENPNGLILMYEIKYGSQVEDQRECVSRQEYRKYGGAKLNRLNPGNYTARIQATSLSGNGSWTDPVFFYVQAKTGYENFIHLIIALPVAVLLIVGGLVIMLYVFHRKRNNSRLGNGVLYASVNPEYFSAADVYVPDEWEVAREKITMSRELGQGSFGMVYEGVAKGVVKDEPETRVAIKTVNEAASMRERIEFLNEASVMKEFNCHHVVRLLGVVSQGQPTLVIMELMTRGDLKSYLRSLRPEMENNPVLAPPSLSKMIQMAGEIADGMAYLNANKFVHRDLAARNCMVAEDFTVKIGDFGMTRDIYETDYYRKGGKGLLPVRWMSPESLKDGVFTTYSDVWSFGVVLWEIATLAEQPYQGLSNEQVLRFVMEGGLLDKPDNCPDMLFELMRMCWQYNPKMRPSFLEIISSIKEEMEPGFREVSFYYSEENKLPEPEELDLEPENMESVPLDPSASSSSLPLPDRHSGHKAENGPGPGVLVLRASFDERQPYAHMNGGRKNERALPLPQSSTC
Text: as §1

In another test the target is IR(h) (Homo sapiens, UniProt P06213). The experiment in a line: isolated kinase activity, IR. The test is classed as biochemical. The settings on record: compound @ 10 μM.
Text: as §1

The target in a further test is Lck(h) (Homo sapiens, UniProt P06239). The experiment in a line: isolated kinase activity, Lck. The class given is biochemical. The conditions noted are these: compound @ 10 μM.
Sequence of Lck(h) (P06239 whole entry): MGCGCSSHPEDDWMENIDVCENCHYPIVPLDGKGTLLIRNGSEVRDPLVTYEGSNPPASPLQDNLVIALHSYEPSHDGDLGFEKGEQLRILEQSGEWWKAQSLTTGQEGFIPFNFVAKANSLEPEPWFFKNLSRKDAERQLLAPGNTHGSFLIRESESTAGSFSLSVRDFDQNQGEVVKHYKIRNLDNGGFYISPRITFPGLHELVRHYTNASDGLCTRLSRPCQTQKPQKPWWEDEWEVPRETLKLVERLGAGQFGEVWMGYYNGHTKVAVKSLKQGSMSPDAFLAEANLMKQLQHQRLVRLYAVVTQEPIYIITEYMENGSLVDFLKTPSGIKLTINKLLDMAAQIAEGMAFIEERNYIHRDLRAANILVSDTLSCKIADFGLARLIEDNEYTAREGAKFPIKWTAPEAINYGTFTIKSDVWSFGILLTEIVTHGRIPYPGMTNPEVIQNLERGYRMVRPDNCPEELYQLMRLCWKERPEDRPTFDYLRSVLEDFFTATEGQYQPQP
Text: as §1

In a further test the target is MAPK2(h) (Homo sapiens, UniProt P28482). As to the kind of experiment: isolated kinase activity, MAPK2. The class given is biochemical. The conditions noted are these: compound @ 10 μM.
Sequence of MAPK2(h) (P28482 whole entry): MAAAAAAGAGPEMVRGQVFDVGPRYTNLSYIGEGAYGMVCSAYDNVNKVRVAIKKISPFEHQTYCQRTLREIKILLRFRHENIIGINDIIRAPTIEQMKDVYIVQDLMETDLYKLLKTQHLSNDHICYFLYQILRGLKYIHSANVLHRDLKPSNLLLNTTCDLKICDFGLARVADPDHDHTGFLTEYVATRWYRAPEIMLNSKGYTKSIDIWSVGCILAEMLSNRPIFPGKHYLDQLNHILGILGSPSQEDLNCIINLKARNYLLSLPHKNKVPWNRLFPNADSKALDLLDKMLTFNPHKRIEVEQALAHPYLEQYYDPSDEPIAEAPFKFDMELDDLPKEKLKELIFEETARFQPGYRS
Text: as §1

The next test addresses isolated FAK (Homo sapiens, UniProt Q05397). The experiment in a line: titration against isolated FAK. The class given is biochemical. The conditions noted are these: titration data.
The subject of another test is Paxillin Y-31. The experiment in a line: intracellular phosphorylation, Paxillin Y-31. The settings on record: c-Src527F/NIH-3T3 cells. The class given is cell-based. Here is the method:
(§2) HT29 (colon cancer) and c-Src527F/NIH-3T3 (Src transformed) cell lines were treated with KX2-391 or with AstraZeneca's ATP competitive Src inhibitor AZ28. AZ28 serves as a positive comparator to show what a validated Src inhibitor should do in these assays. After treatment with compound, cells were lysed, subjected to PAGE and probed with a battery of antibodies. […] In addition, off-target protein phosphorylation was also investigated. Further, induction of apoptosis was evaluated via Caspase 3 cleavage. Multiple doses of each compound were tested because the trends in response to increasing drug concentration are the most reliable indicator of activity.
(§3) The same range of multiples of the GI50 for AZ28 in these two cell lines was run as a comparison.

In test [1] the test system is total phosphotyrosine levels. The experiment in a line: total phosphotyrosine levels. The class given is cell-based. The conditions noted are these: HT29 and c-Src527F/NIH-3T3 cells. Here is the method: as §2, §3
The test system of test [2] is K562R (Gleevec resistant CML). The experiment in a line: growth inhibition, K562R. The test is classed as cell-based, Human.
For test [3], the system named is CCRF-HSB-2 (Adult lymphoblastic leukemia). As to the kind of experiment: growth inhibition, CCRF-HSB-2. The class given is cell-based, Human. The conditions noted are these: read-out: GI50.
The test system of another test is Ba/F3 + WT BCR-Abl. The experiment in a line: MTT growth inhibition, Ba/F3 + WT BCR-Abl. The class given is cell-based. The settings on record: 96 hrs. An excerpt: Cultures of Ba/F3 cells were also transfected to express wild-type (WT) Bcr-Abl, E255K mutation of Bcr-Abl, or T315I mutation of Bcr-Abl and cultured in 96-well plates in complete media without IL-3. The Ba/F3 cell line is rendered Gleevec resistant when the mutation in the Bcr/Abl tyrosine kinase […] is present. […] All assays are in triplicate.

For the next test, the system named is Daoy. The experiment in a line: brain tumor cell growth inhibition, Daoy. The settings on record: desmoplastic cerebellar medulloblastoma, read-out: IC50 (title: GI50). The class given is cell-based, Human.
The subject of a further test is SK-N-MC. As to the kind of experiment: brain tumor cell growth inhibition, SK-N-MC. The test is classed as cell-based, Human. The settings on record: neuroepithelioma, read-out: IC50 (title: GI50).
For the next test, the system named is LN-18. The experiment in a line: brain tumor cell growth inhibition, LN-18. The settings on record: LN-18, glioblastoma; glioma; read-out: IC50 (title: GI50). The test is classed as cell-based, Human.
In a further test the test system is SK-N-FI. The experiment in a line: brain tumor cell growth inhibition, SK-N-FI. The test is classed as cell-based, Human. The conditions noted are these: neuroblastoma, read-out: IC50 (title: GI50).
The test system of a further test is U87. The experiment in a line: brain tumor cell growth inhibition, U87. The class given is cell-based, Human. The conditions noted are these: U87, glioblastoma; astrocytoma; read-out: IC50 (title: GI50).
Another test concerns Caki-2. As to the kind of experiment: renal tumor cell growth inhibition, Caki-2. The settings on record: Caki-2, clear cell carcinoma. The test is classed as cell-based, Human. As for the experimental part:
These GI50s were determined using standard tumor growth inhibition assays, similar to those described in detail in this Example 7.

A further test concerns COLO-320DM. The experiment in a line: MTT growth inhibition, Dasatinib-resistant COLO-320DM. The class given is cell-based, human. The conditions noted are these: 8.0×10^3 cells/well, […] FBS, 78 Hr.
Test [4] relates to Src-Y416 autophosphorylation. The experiment in a line: intracellular phosphorylation, Src autophosphorylation. The class given is cell-based. The conditions noted are these: HT29 and c-Src527F/NIH-3T3 cells, 0.2×-25× GI50. As for the experimental part:
as §2, §3

The subject of the next test is JAK1 Y1022/1023. The experiment in a line: whole cell phosphorylation, JAK1. The test is classed as cell-based. The conditions noted are these: whole cells.
Another test deals with Lck Y405. As to the kind of experiment: whole cell phosphorylation, Lck. The test is classed as cell-based. The settings on record: whole cells.
In the next test the test system is Bcr/Abl &245. The experiment in a line: whole cell phosphorylation, Bcr/Abl. The test is classed as cell-based. The conditions noted are these: whole cells.
Test [5] relates to protein tyrosine kinases (PTKs). As to the kind of experiment: selectivity for protein tyrosine kinases in whole cells. The class given is cell-based. The settings on record: as compared to Dasatinib. The text has this:
The compounds of the invention are selective for protein tyrosine kinases (PTKs). […] SYF cells are mouse fibroblasts that lack the Src kinase family members Src, Yes and Fyn.

For test [6], the system named is PC3-MM2 prostate cancer cells. The experiment in a line: orthotopic prostate model for in vivo metastases. Also noted: species or system Nu/Nu mice. As for the experimental part: Nu/Nu mice (8-12 weeks of age) were injected with PC3-MM2 prostate cancer cells into the prostate as described previously in Pettaway et al., Clin Cancer Res 1996, 2:1627-1636, hereby incorporated herein by reference in its entirety. […] All mice were sacrificed by cervical dislocation on about day 42. Tumor volume (measured by caliper), weight, and incidence of regional (celiac or para-aortal) lymph node metastases were recorded.

The subject of test [7] is HT29 (human colon cancer). The settings on record: KXO1 2.0 and 4 mg/kg bid vs Dasatinib 25 then 15 mg/kg bid, 28 days.
The next test relates to H460. As to the kind of experiment: MTT growth inhibition, Dasatinib-resistant H460. The settings on record: H460, 8.0×10^3 cells/well, […] FBS, 78 Hr.

Sequence of isolated FAK (Q05397 whole entry): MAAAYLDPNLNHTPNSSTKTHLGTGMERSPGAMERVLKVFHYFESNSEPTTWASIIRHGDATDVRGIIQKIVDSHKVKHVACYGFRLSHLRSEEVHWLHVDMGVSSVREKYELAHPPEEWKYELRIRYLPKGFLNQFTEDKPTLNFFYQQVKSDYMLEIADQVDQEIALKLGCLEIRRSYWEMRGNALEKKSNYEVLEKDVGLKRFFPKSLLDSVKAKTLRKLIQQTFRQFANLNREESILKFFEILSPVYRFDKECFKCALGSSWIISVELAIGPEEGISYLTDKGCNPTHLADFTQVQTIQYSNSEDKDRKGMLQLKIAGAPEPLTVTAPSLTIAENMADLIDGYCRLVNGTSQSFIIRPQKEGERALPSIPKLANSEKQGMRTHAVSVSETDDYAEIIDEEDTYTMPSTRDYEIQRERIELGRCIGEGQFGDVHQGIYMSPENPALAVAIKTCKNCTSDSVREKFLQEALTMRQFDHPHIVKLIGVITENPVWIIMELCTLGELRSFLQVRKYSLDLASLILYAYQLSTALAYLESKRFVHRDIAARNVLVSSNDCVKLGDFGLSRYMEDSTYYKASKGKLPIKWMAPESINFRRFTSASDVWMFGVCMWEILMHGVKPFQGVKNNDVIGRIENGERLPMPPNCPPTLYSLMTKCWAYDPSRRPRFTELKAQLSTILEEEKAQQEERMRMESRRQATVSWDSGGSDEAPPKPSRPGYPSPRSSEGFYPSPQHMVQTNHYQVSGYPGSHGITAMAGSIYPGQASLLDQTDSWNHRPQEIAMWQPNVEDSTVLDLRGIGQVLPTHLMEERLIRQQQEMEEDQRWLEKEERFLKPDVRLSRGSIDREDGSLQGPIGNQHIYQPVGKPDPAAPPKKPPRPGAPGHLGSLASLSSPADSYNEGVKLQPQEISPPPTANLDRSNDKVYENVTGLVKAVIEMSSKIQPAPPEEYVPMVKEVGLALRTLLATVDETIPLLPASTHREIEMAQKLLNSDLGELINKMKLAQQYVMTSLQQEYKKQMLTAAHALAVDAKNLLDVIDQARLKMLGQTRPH
Sequence of FGFR2(h) (P21802 22-821): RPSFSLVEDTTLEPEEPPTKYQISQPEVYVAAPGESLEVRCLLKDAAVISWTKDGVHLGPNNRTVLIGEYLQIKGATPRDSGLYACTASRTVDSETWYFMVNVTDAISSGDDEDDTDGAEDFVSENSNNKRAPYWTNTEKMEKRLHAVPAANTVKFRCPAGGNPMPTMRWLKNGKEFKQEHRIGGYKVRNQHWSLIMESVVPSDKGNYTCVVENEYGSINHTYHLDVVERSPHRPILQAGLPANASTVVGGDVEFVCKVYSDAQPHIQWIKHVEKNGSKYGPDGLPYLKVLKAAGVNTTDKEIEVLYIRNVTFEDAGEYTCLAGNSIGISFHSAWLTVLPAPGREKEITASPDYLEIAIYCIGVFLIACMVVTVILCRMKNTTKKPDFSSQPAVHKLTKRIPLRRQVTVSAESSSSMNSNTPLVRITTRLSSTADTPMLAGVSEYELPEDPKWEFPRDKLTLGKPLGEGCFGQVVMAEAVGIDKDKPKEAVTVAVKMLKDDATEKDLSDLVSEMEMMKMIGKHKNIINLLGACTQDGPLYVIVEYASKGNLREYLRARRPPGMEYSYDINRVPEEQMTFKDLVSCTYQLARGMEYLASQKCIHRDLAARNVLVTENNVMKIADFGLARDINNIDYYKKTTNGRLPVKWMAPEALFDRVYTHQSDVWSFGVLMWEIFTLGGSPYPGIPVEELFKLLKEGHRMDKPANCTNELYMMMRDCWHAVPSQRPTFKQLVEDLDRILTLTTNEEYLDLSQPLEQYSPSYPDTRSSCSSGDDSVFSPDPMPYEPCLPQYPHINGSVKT
Procedure for COLO-320DM: (§4) Cell proliferation/growth inhibition was assessed using MTT colorimetric assay.
(§5) On Day 3, 10 μL MTT (5 mg/mL) was added to each well. Cells were then incubated in the presence of MTT for 4 hours at 37° C., appropriate CO2 conditions. After this incubation period, 90 μL 10% SDS(+HCl) was added to each well to lyse cells and solubilize formazan. Cells were then incubated overnight at 37° C., appropriate CO2 conditions.
(§6) The OD570 was measured using microplate reader. Growth inhibition curves and EC50/IC50 was determined using GraphPad Prism 4 statistical software.
Procedure for H460: as §4, §5, §6

Take `O=C(Cc1ccc(-c2ccc(OCCN3CCOCC3)cc2)cn1)NCc1ccccc1` [KX2-391]: the “percent activity of isolated kinase relative to control” value came to 94% at FGFR2(h); 85% at Fyn(h); 101% at IGF-1R(h); 112% at IR(h); 109% on Lck(h); 112% on MAPK2(h). At isolated FAK, the IC50 (in general, the concentration at which inhibition is half-maximal) is above 48000 nM. Further, the “phosphorylation of Paxillin Y-31 (Src transphosphorylation)” value with Paxillin Y-31 is recorded as “inhibited”. Besides, the total phosphotyrosine levels result in [1] is recorded as “reduction in the total phosphotyrosine levels”.
In the case of `O=C(Cc1ccc(-c2ccc(OCCN3CCOCC3)cc2)cn1)NCc1ccccc1` [KXO1], the GI50 (commonly the concentration at which growth is held to half of that of the control) in test [2] was 0.64 nM; in test [3] it was 12 nM; in the test on Ba/F3 + WT BCR-Abl it was 85 nM; in the test with Caki-2 it was 39.2 nM. Besides, the IC50 with Daoy was 13.6 nM; in the test on SK-N-MC, 5.8 nM; in the test on LN-18 it was 14.5 nM; with SK-N-FI it was 1.7 nM; with U87, 33.1 nM; in the test with COLO-320DM, 30 nM. The compound also registered an IC50 in the test on H460 of 51 nM. The results for the IC80 in the test with COLO-320DM and with H460 were 80 nM and 105 nM, respectively. The IC90 (commonly the point of the concentration-response curve where the effect stands at 90%) in the test on COLO-320DM was determined as 144 nM; with H460, 162 nM. Also, in [4], the Src-Y416 autophosphorylation result was “potent inhibitor”. Moreover, the “phosphorylation of JAK1 Y1022/1023” value in the test on JAK1 Y1022/1023 is on record as “not inhibited”. The “phosphorylation of Lck Y405” value in the test with Lck Y405 is “not inhibited”. Also, the “phosphorylation of Bcr/Abl &245” value in the test with Bcr/Abl &245 is reported as “inhibited less potently”. Also, the “PTK selectivity in whole cells” value in [5] was “very high PTK selectivity”. Moreover, the LN metastasis in test [6] (5.0 mg/kg/day oral gavage) is given as 4/5; in [6] (10.0 mg/kg/day oral gavage), 2/5. In addition, the Tumor incidence in [6] (5.0 mg/kg/day oral gavage) and in test [6] (10.0 mg/kg/day oral gavage) was 5/6 each time. Also, the “Tumor weight (g) Median” value turned out to be 1.16 g in [6] (5.0 mg/kg/day oral gavage) and 0.35 g in test [6] (10.0 mg/kg/day oral gavage). Further, the “oral potency in staged HT29 mouse xenografts” value in test [7] was “higher oral potency”.
